Laboratory results: ChEMBL document CHEMBL5550123, “Discovery of novel pyridone-benzamide derivatives possessing a 1-methyl-2-benzimidazolinone moiety as potent EZH2 inhibitors for the treatment of B-cell lymphomas” (Bioorg Med Chem, 2024)
pIC50: −log10 of the molar value.

Experiments:
[1] = tested on: KARPAS-422; experiment: Antiproliferative activity against human KARPAS-422 cells assessed as inhibition of cell growth measured after 72 hrs by CCK-8 method; type: functional, cell-based; details: KARPAS-422, 72 h
[2] = Inhibition of EZH2 Y641F mutant (unknown origin) preincubated for 15 mins followed by substrate addition and measured after 45 mins by AlphaLISA assay; parameters: species or system Homo sapiens
[3] = Metabolic stability in human liver microsomes assessed as half life at 1 uM measured upto 60 mins in presence of NADPH by LC-MS/MS analysis; type: ADME, Microsome
[4] = Metabolic stability in human liver microsomes assessed as intrinsic clearance at 1 uM measured upto 60 mins in presence of NADPH by LC-MS/MS analysis; type: ADME, Microsome; details: read-out: CLH
[5] = Inhibition of EZH2 Y641N mutant (unknown origin) preincubated for 15 mins followed by substrate addition and measured after 45 mins by AlphaLISA assay; parameters: species or system Homo sapiens

SMILES | pIC50 [1] | further results
CCN(c1cc(-c2ccc3c(c2)n(C)c(=O)n3C2CN(CC#N)C2)cc(C(=O)NCc2c(C)cc(C)[nH]c2=O)c1C)C1CCOCC1 | 7.24 | –
CCN(C(=O)C1CC1)c1cc(-c2ccc3c(c2)n(C)c(=O)n3C2CCN(C)CC2)cc(C(=O)NCc2c(C)cc(C)[nH]c2=O)c1C | 7.53 | –
CCN(c1cc(-c2ccc3c(c2)n(C2CN(C4COC4)C2)c(=O)n3C)cc(C(=O)NCc2c(C)cc(C)[nH]c2=O)c1C)C1CCOCC1 | 6.81 | –
CCN(c1cc(-c2ccc3c(c2)n(C)c(=O)n3C2CCN(CC(F)(F)F)CC2)cc(C(=O)NCc2c(C)cc(C)[nH]c2=O)c1C)C1CCOCC1 | 7.28 | –
CCN(c1cc(-c2ccc3c(c2)n(C)c(=O)n3C2CN(C(C)=O)C2)cc(C(=O)NCc2c(C)cc(C)[nH]c2=O)c1C)C1CCOCC1 | 6.84 | –
CCN(c1cc(-c2ccc3c(c2)n(C)c(=O)n3C2COC2)cc(C(=O)NCc2c(C)cc(C)[nH]c2=O)c1C)C1CCOCC1 | 7.24 | –
CCN(c1cc(-c2ccc3c(c2)n(C)c(=O)n3C2CN(C)C2)cc(C(=O)NCc2c(C)cc(C)[nH]c2=O)c1C)C1CCOCC1 | 7.53 | –
CCN(C)C1CCC(N(CC)c2cc(-c3ccc4c(c3)n(C)c(=O)n4C3CCN(C)CC3)cc(C(=O)NCc3c(C)cc(C)[nH]c3=O)c2C)CC1 (stereo not given) | 7.58 | –
CCN(c1cc(-c2ccc3c(c2)[nH]c(=O)n3C2CCOCC2)cc(C(=O)NCc2c(C)cc(C)[nH]c2=O)c1C)C1CCOCC1 | 7.29 | –
CCN(c1cc(-c2ccc3c(c2)n(C)c(=O)n3C2CCN(C)CC2)cc(C(=O)NCc2c(C)cc(C)[nH]c2=O)c1C)C1CCN(C)CC1 | 6.76 | –
CCN(c1cc(-c2ccc3c(c2)n(C)c(=O)n3C2CN(CC(F)F)C2)cc(C(=O)NCc2c(C)cc(C)[nH]c2=O)c1C)C1CCOCC1 | 7.34 | –
CCN(c1cc(-c2ccc3c(c2)n(C2CCOCC2)c(=O)n3C)cc(C(=O)NCc2c(C)cc(C)[nH]c2=O)c1C)C1CCOCC1 | 7.53 | –
CCN(c1cc(-c2ccc3c(c2)n(CC)c(=O)n3C2CCOCC2)cc(C(=O)NCc2c(C)cc(C)[nH]c2=O)c1C)C1CCOCC1 | 7.20 | –
CCN(c1cc(-c2ccc3c(c2)n(C)c(=O)n3CCOC)cc(C(=O)NCc2c(C)cc(C)[nH]c2=O)c1C)C1CCOCC1 | 7.22 | –
CCN1CC(n2c(=O)n(C)c3ccc(-c4cc(C(=O)NCc5c(C)cc(C)[nH]c5=O)c(C)c(N(CC)C5CCOCC5)c4)cc32)C1 | 7.28 | –
CCN(c1cc(-c2ccc3c(c2)n(C)c(=O)n3C2CCN(C)CC2)cc(C(=O)NCc2c(C)cc(C)[nH]c2=O)c1C)C1CCN(C(C)=O)CC1 | 6.98 | –
CCN(c1cc(-c2ccc3c(c2)n(C)c(=O)n3C2CCN(C)CC2)cc(C(=O)NCc2c(C)cc(C)[nH]c2=O)c1C)C1CCN(CC2CC2)CC1 | 6.80 | –
CCN(c1cc(-c2ccc3c(c2)n(C)c(=O)n3C2CCN(C)CC2)cc(C(=O)NCc2c(C)cc(C)[nH]c2=O)c1C)C1CCN(C2COC2)CC1 | 6.66 | –
CCN(c1cc(-c2ccc3c(c2)n(C)c(=O)n3C2CCN(C)CC2)cc(C(=O)NCc2c(C)cc(C)[nH]c2=O)c1C)C1CCC(N(C)C2COC2)CC1 (stereo not given) | 7.63 | –
CCN(c1cc(-c2ccc3c(c2)n(C2CN(C)C2)c(=O)n3C)cc(C(=O)NCc2c(C)cc(C)[nH]c2=O)c1C)C1CCOCC1 | 7.36 | –
CCN(c1cc(-c2ccc(CN3CCOCC3)cc2)cc(C(=O)NCc2c(C)cc(C)[nH]c2=O)c1C)C1CCOCC1 [TAZEMETOSTAT] | 7.46 | pIC50 [2]: 9.43; half-life at 1 µM [3]: 7.97 min; microsomal CLint at 1 µM [4]: 174 µL/min/mg; pIC50 [5]: 9.07
CCN(c1cc(-c2ccc3c(c2)n(C)c(=O)n3C2CN(CC3CC3)C2)cc(C(=O)NCc2c(C)cc(C)[nH]c2=O)c1C)C1CCOCC1 | 7.40 | –
CCN(c1cc(-c2ccc3c(c2)n(C)c(=O)n3C2CCN(C)CC2)cc(C(=O)NCc2c(C)cc(C)[nH]c2=O)c1C)C1CCC(N(C)CCOC)CC1 (stereo not given) | 8.02 | pIC50 [2]: 9.85; half-life at 1 µM [3]: 147 min; microsomal CLint at 1 µM [4]: 9.38 µL/min/mg; pIC50 [5]: 9.77

Second part, led by results:

pIC50 [1] | SMILES | further results
7.16 | CCN(c1cc(-c2ccc3c(c2)n(C)c(=O)n3C2CCN(S(C)(=O)=O)CC2)cc(C(=O)NCc2c(C)cc(C)[nH]c2=O)c1C)C1CCOCC1 | –
7.74 | CCN(c1cc(-c2ccc3c(c2)n(C)c(=O)n3C2CCN(C)CC2)cc(C(=O)NCc2c(C)cc(C)[nH]c2=O)c1C)C1CCOCC1 | –
7.56 | CCN(c1cc(-c2ccc3c(c2)n(C)c(=O)n3C2CCN(C(=O)C3CC3)CC2)cc(C(=O)NCc2c(C)cc(C)[nH]c2=O)c1C)C1CCOCC1 | –
7.31 | CCN(c1cc(-c2ccc3c(c2)n(C)c(=O)n3C2CCOCC2)cc(C(=O)NCc2c(C)cc(C)[nH]c2=O)c1C)C1CCOCC1 | –
7.07 | CCN(c1cc(-c2ccc3c(c2)n(C)c(=O)n3C2CCN(C(C)=O)CC2)cc(C(=O)NCc2c(C)cc(C)[nH]c2=O)c1C)C1CCOCC1 | –
7.30 | CCN(c1cc(-c2ccc3c(c2)n(C)c(=O)n3C2CCN(CC(F)F)CC2)cc(C(=O)NCc2c(C)cc(C)[nH]c2=O)c1C)C1CCOCC1 | –
7.58 | CCN(c1cc(-c2ccc3c(c2)n(C2CCN(C)CC2)c(=O)n3C)cc(C(=O)NCc2c(C)cc(C)[nH]c2=O)c1C)C1CCOCC1 | –
7.61 | CCN(c1cc(-c2ccc3c(c2)n(C)c(=O)n3C2CCN(CC3CC3)CC2)cc(C(=O)NCc2c(C)cc(C)[nH]c2=O)c1C)C1CCOCC1 | –
7.51 | CCN(c1cc(-c2ccc3c(c2)n(C)c(=O)n3C2CN(C(=O)C3CC3)C2)cc(C(=O)NCc2c(C)cc(C)[nH]c2=O)c1C)C1CCOCC1 | –
7.27 | CCN(c1cc(-c2ccc3c(c2)n(C)c(=O)n3C2CCN(CC#N)CC2)cc(C(=O)NCc2c(C)cc(C)[nH]c2=O)c1C)C1CCOCC1 | –
7.48 | CCN1CCC(n2c(=O)n(C)c3ccc(-c4cc(C(=O)NCc5c(C)cc(C)[nH]c5=O)c(C)c(N(CC)C5CCOCC5)c4)cc32)CC1 | –
7.63 | CCN1CCC(n2c(=O)n(C)c3cc(-c4cc(C(=O)NCc5c(C)cc(C)[nH]c5=O)c(C)c(N(CC)C5CCOCC5)c4)ccc32)CC1 | –
7.59 | CCN(c1cc(-c2ccc3c(c2)n(C)c(=O)n3C2CCN(C3COC3)CC2)cc(C(=O)NCc2c(C)cc(C)[nH]c2=O)c1C)C1CCOCC1 | –
7.42 | CCC(=O)N1CCC(n2c(=O)n(C)c3cc(-c4cc(C(=O)NCc5c(C)cc(C)[nH]c5=O)c(C)c(N(CC)C5CCOCC5)c4)ccc32)CC1 | –
